Source: patent US8609091B2, “Method for endocytic presentation of an immunosuppressive for the treatment of type 1 diabetes” (The Curators of the University of Missouri, priority 2002, dated 2013)

Experiments:
Type in all cases: cell-based, NOD mice
[1] = system: INSβ-specific T cell line; test: Presentation to INSβ-specific T cell line ([3H]thymidine proliferation); conditions: irradiated NOD splenic APCs; peptides 10 μM, Ig-chimeras 1 μM; 3-day incubation
Method: T cell lines: A T cell line specific for INSβ peptide was generated by immunizing NOD mice with 100 μg of INSβ peptide in 200 μl PBS/CFA (vol/vol) subcutaneously (“s.c.”) in the footpads and at the base of each limb. After 10 days, the draining lymph nodes were removed, and T cells were stimulated in vitro for 2 rounds in the presence of irradiated (3000 rads), syngenic splenocytes, 5% T-Stim supplement (Collaborative Biomedical Products, Bedford, Mass.), and INSβ peptide (25 μg/ml). […]
(§1) Presentation of Ig-INSβ chimera to specific T cells was then determined. […] For presentation of INSβ peptide and Ig-INSβ (FIGS. 2(a) and 2(b) respectively), the activation was assessed by [^3H] thymidine incorporation since the T cells were from a line. Accordingly, 1 μCi [^3H]thymidine per well was added during the last 14 hours of a 3-day incubation period and the cells were harvested, and the radioactivity counted. For presentation of HEL peptide (FIG. 2(c)) and Ig-HEL (FIG. 2(d)), T cell activation was assessed by measuring IL-2 production as the HEL-specific cells were from a hybridoma. Accordingly, after 24 hours incubation IL-2 was measured in 100 μl supernatant by ELISA. […]

[2] = system: HEL-specific hybridoma; test: Presentation to HEL-specific T cell hybridoma (IL-2 production); conditions: irradiated NOD splenocytes; peptides 10 μM, Ig-chimeras 1 μM; 24 hours
Method: T cell hybridomas: A HEL-specific T cell line was fused with the αβ TCR negative thymoma BW1100 (ATCC) using polyethylene glycol 4000 (Sigma, St. Louis, Mo.). Hybrids were then selected by supplementing the culture media with hypoxanthine-azaserine (Sigma). Resulting hybridomas were then screened for reactivity to HEL peptide by testing for production of IL-2 in the supernatant following stimulation with irradiated (3000 rads) splenocytes in the presence of 15 μg/ml HEL peptide. Positive hybridomas were then cloned by limiting dilution and used to assess presentation of HEL peptide and Ig-HEL chimera.
as §1

[3] = system: Splenic cells; test: IFNγ response of splenic cells from 14 week old mice; conditions: INSβ peptide 18 μM, Ig-INSβ chimeras 1 μM; 24 hours; no rIL-10
Method: (§2) Detection of IL-10 and IFNγ was performed according to BD Pharmingen's standard protocol. The capture Abs were as follows: rat anti-mouse IL-10, JES5-2A5 and rat anti-mouse IFNγ, R4-6A2. The biotinylated anti-cytokine Abs were as follows: rat anti-mouse IL-10, JES5-16E3 and rat anti-mouse IFNγ, XMG1.2. Both antibodies were purchased from BD Pharmingen (San Diego, Calif.). ELISA for the detection of active TGFβ was preformed using the human TGFβ1 DuoSet kit (R&D systems, Minneapolis, Minn.) according to the manufacturer's instructions. […] All assays were read on a SpectraMAX 190 counter. Graded amounts of recombinant mouse IFNγ, IL-10, and TGFβ were included in all experiments for construction of standard curves. The cytokine concentration in culture supernatants was interpolated from the linear portion of the standard curve.
To test this premise, splenic and islet cells from 14 week old mice were stimulated with agg Ig-INSβ, which induces IL-10 production by the presenting APCs and secretion of IFNγ was measured. Splenic (a) and islet (b) cells (5×10^5 cells/well) from 14 week old female NOD mice were stimulated with the indicated antigen in the presence or absence of 1 ng of rIL-10 for 24 hours. The supernatant (100 μl/well) was used to measure IFNγ by ELISA as indicated in “Materials and Methods”. […]

[4] = system: islet cells; test: IFNγ response of islet cells from 14 week old mice; conditions: INSβ peptide 18 μM, Ig-INSβ chimeras 1 μM; 24 hours; no rIL-10
Method: as §2
Islet-infiltrating cells were derived from 14 week old female NOD mice by collagenase digestion as previously described (36). […] Viability of the cells was determined by trypan blue exclusion.
To test this premise, splenic and islet cells from 14 week old mice were stimulated with agg Ig-INSβ, which induces IL-10 production by the presenting APCs and secretion of IFNγ was measured. […]

Sequence	proliferation of the INSβ-specific T cell line [1]	stimulation of HEL-specific hybridoma (IL-2 production) [2]	IFNγ response of splenic T cells [3]	IFNγ response of islet T cells [4]
AMKRHGLDNYRGYSL [HEL peptide]	unable to induce proliferation	able to stimulate the HEL-specific hybridoma		
SHLVEALYLVCGERG [INSβ peptide]	proliferated significantly		developed IFNγ responses	developed IFNγ responses
